Measurements from patent publication US10053502B2, “Selective inhibitors of c-Fos and their antiproliferative properties” (INSERM (INSTITUT NATIONAL DE LA SANTÉ ET DE LA RECHERCHE …, priority 2014, dated 2018).
pIC50: −log10 of the molar value. Where two headings read alike, the source gives them in different places. Residues, ends and D or L forms follow the SMILES beside them.

What was measured:
[1] = test system: human coronary arterial endothelial cells (HCAEC); test: Serum-induced proliferation of HCAEC, BrdU incorporation; type: cell-based; details: 10% serum, peptide 3-12 μM, U0126 10 μM, Paclitaxel 10 nM, VIVIT 100 μM
Experimental: Using the same protocol than in FIG. 3, cells were grown in the presence of 10% serum after withdrawal. The peptide TAT-DEF-c-Fos was applied at a single dose one day after withdrawal. Proliferation was tested using a BrdU assay; n=3; One-way ANOVA; Dunett post hoc test; * p<0.05; when compared to the group treated with 10% serum
Primary human coronary arterial endothelial cells (HCAEC) (Promocell C12222) were grown in Endothelial Cell Growth Medium MV2 (Promocell).
(§1) 10 000 cells per well were grown in the presence of complete medium. After one cycle of cell division (around 32 hours for HCAEC and vSMC, 24 hours for NIH3T3), the cells were starved for one other cycle (0.1% serum or nutriment supplement for HCAEC). […] Proliferation was analyzed after BrdU incorporation, which allows the visualization of cells under division. For HCAEC and vSMC, BrdU was added with inhibitor. For NIH3T3, it was added only during the last three hours. Cells were fixed in 4% paraformaldehyde.
(§2) Only the nuclei with an intact nucleus were taken into account. Image-Pro Plus software (Media Cybernetics) was used in order to quantify BrdU positive cells. The percentage of positive cells was reported to the total number of Hoechst-positive cells.

[2] = test system: vSMC; test: Wound healing assay (invasiveness) in vSMC; type: cell-based, human; details: 24 to 72 hours, U0126 10 μM, Paclitaxel 10 nM, 10% serum
Experimental: The peptide was applied once, at the same time as 10% serum. The invasiveness was calculated as the percentage of cells over the size of the lesion, 24, 48 and 72 hours post-lesion.
Cells were cultured in 24-well plates as a confluent monolayer (30000 cells plated per well). […] Cells were fixed in 4% paraformaldehyde then stained with cresyl violet dye (1% in methanol). Pictures were taken to visualize the marked wound location. The wound healing effect was measured using the NIH ImageJ program and expressed as percentage of recovery of the lesion.
Invasive properties were studied using the wound healing protocol.
The percentage of lesion recovery was measured after cresyl violet staining of vSMC cells (FIG. 8).

[3] = test system: sNF96.2 (MPNST cell line); type: cell-based, human; details: MTT, 96 hours; for anti-proliferative properties on MPNST (words): 2 to 100 μM
Experimental: The inventors have further tested 4 different peptides in the Peripheral Nerve Sheath Tumors (MPNST) cell lines sNF96.2, which was deposited to the ATCC under the reference ATCC® CRL-2884™.
Cells were cultured at DayO in a complete medium (DMEM with 10% of fetal bovine serum). Then they were deprived at Day2 (24 hours in a medium comprising DMEM with 0.1% fetal bovine serum followed by 24 hours in DMEM alone).
At Day 4, the cells were incubated with a dose escalation regimen of pepsignal peptides from 2 to 100 μM.
The proliferation tests were carried out 96 hours later.
Proliferation was analysed by a MTT assay. The MTT assay is a colorimetric assay for assessing cell viability. The viability is measured by the metabolic activity if the cells, which is determined by the activity of a mitochondrial succinate dehydrogenate. Typically, the cell media goes from yellow to blue and the intensity of the coloration is proportional to the number of viable cells. Coloration is determined by […] at 570 nm.
The inventors performed three independent experiments, each point being performed in duplicate for each experiment.

[4] = test system: NIH3T3 cells; test: Serum-induced proliferation of NIH3T3 fibroblasts, BrdU incorporation; type: cell-based, mouse; details: 10% serum; BrdU 3 h; peptide 1 to 12 μM, U0126 10 μM
Experimental: On day one, 10 000 cells per well were grown in the presence of 10% serum.
NIH 3T3 mouse embryonic fibroblast cells were grown in DMEM supplemented with 10% (v/v) heat-inactivated FBS, 100 U/ml penicillin, and 100 μg/ml streptomycin.
as §1, §2

[5] = test system: malignant peripheral nerve sheat tumors (MPNST) from NF1 patients; test: Proliferation of MPNST cell lines from NF1 patients; type: cell-based; details: Homo sapiens, read-out: IC50, inhibition of proliferation of MPNST, 15% serum, control
Experimental: Human cell lines from malignant peripheral nerve sheat tumors (MPNST) were treated with either TAT-DEF-c-Fos at increasing doses, or as a control, with Rapamycin, an inhibitor of the mTOR pathway that is classically used as an inhibitor of proliferation on this cell line. The TAT-DEF-c-Fos peptide inhibited proliferation of MPNST at very low doses when compared to Rapamycin (IC50 for TAT-DEF-c-Fos around 10 μM instead of 10 mM for Rapamycin).
Malignant Peripheral Nerve Sheath Tumors (MPNST: from NF1 patients) were obtained from Michel Videaud's laboratory. 2000 cells were grown in the presence of 15% serum after withdrawal.
The inventors tested the efficacy of TAT-DEF-c-Fos on malignant NF1 cell proliferation (FIG. 9). For this purpose, the inventors used Human cell lines from malignant peripheral nerve sheat tumors (MPNST) from NF1 patients.
The MPNST cell lines were derived from a recurrent mass associated with peripheral nerve sheat and diagnosed as MPNST (Malignant Peripheral Nerve Sheath Tumor) in patients meeting NF1 diagnostic criteria.

[6] = test system: vascular smooth muscle cells (vSMC); test: Serum-induced proliferation of vSMC, BrdU incorporation; type: cell-based, human; details: 3, 6 and 12 μM, 10% serum
Experimental: On day one, 10 000 cells per well were grown in the presence of 10% serum. […] On the bases of our previous results in neuronal cells (see Lavaur et al., 2007) three different doses of pepsignal were tested: from 3 to 12 μM.
Using the same protocol as in FIG. 3, cells were grown in the presence of 10% FBS (serum) after withdrawal. The peptide TAT-DEF-c-Fos was applied once (6 or 12 μM) on day one (first day after withdrawal) and proliferation was tested using a BrdU assay 24, 48 or 72 hours later. When indicated, multiple applications of the peptide were done (“m”) every 24 hours. Note that the TAT-DEF-c-Fos12 μM is not reported herein; n=3; Two-way ANOVA; Bonferroni post hoc test; *** p<0.001 when compared to the group treated with 10% serum.
Primary vascular smooth muscle cells (vSMC) (ATCC CRL-1999) were grown in DMEM F12K medium supplemented 0.05 mg/ml ascorbic acid; 0.01 mg/ml insulin; 0.01 mg/ml transferrin; 10 ng/ml sodium selenite; 10% (v/v) heat-inactivated FBS (Fetal Bovine Serum), 100 U/ml penicillin, and 100 μg/ml streptomycin, 10 mM HEPES.
10 000 cells per well were grown in the presence of complete medium. […] Proliferation was analyzed after BrdU incorporation, which allows the visualization of cells under division. […]
Only the nuclei with an intact nucleus were taken into account. Image-Pro Plus software (Media Cybernetics) was used in order to quantify BrdU positive cells. […]

Molecule | inhibition of HCAEC cell proliferation [1] | effect on vSMC invasiveness (wound healing) [2] | anti-proliferative properties on MPNST (words) [3] | inhibition of NIH3T3 fibroblast proliferation [4] | also measured
CC(=O)O[C@H]1C(=O)[C@@]2(C)[C@H]([C@H](OC(=O)c3ccccc3)[C@]3(O)C[C@H](OC(=O)[C@H](O)[C@@H](NC(=O)c4ccccc4)c4ccccc4)C(C)=C1C3(C)C)[C@]1(OC(C)=O)CO[C@@H]1C[C@@H]2O [Paclitaxel] | efficient | significant but transient effect |  |  | 
CC[C@H](C)[C@H](NC(=O)[C@H](CCCCN)NC(=O)[C@@H](NC(=O)[C@H](CCC(N)=O)NC(=O)[C@@H](N)CCCNC(=N)N)[C@@H](C)CC)C(=O)N[C@@H](Cc1c[nH]c2ccccc12)C(=O)N[C@@H](Cc1ccccc1)C(=O)N[C@@H](Cc1c[nH]c2ccccc12)C(=O)N[C@@H](CC(N)=O)C(=O)N[C@@H](CCCNC(=N)N)C(=O)N[C@@H](CCCNC(=N)N)C(=O)N[C@@H](CCSC)C(=O)N[C@@H](CCCCN)C(=O)N[C@@H](Cc1c[nH]c2ccccc12)C(=O)N[C@@H](CCCCN)C(=O)N[C@@H](CCCCN)C(=O)N1CCC[C@H]1C(=O)N1CCC[C@H]1C(=O)N[C@@H](CS)C(=O)N[C@H](C(=O)N[C@H](C(=O)N[C@@H](Cc1ccc(O)cc1)C(=O)N[C@H](C(=O)N[C@@H](CO)C(=O)N[C@@H](CO)C(=O)N[C@@H](Cc1ccccc1)C(=O)N[C@H](C(=O)N[C@@H](Cc1ccccc1)C(=O)N[C@H](C(=O)N[C@@H](Cc1ccc(O)cc1)C(=O)N1CCC[C@H]1C(=O)N[C@@H](CCC(=O)O)C(=O)N[C@@H](C)C(=O)N[C@@H](CC(=O)O)C(=O)N[C@@H](CO)C(=O)N[C@@H](Cc1ccccc1)C(=O)N1CCC[C@H]1C(=O)N[C@@H](CO)C(=O)O)[C@@H](C)O)C(C)C)[C@@H](C)O)[C@@H](C)O)[C@@H](C)O [Penetratin-DEF-c-Fos] (H-RQIKIWFWNRRMKWKKPPCTTYTSSFVFTYPEADSFPS-OH; N-terminus and C-terminus assumed) |  |  | lower efficacy than the TAT-DEF-c-Fos peptide |  | inhibition of proliferation of sNF96.2 ([3]; 100 μM): ~66%
N#CC(=C(/N)Sc1ccccc1N)/C(C#N)=C(\N)Sc1ccccc1N [Peptide U0126, U0126] | efficient | lack of effect |  | failed to inhibit proliferation | effect on vSMC invasiveness (wound healing) ([2]; listed as classical MEK inhibitor): failed to block invasiveness
CO[C@H]1C[C@@H]2CC[C@@H](C)[C@@](O)(O2)C(=O)C(=O)N2CCCC[C@H]2C(=O)O[C@H]([C@H](C)C[C@@H]2CC[C@@H](O)[C@H](OC)C2)CC(=O)[C@H](C)/C=C(\C)[C@@H](O)[C@@H](OC)C(=O)[C@H](C)C[C@H](C)/C=C/C=C/C=C/1C [Rapamycin] |  |  |  |  | pIC50 [5]: ~2.00
CC[C@H](C)[C@H](NC(=O)[C@H](Cc1c[nH]cn1)NC(=O)[C@@H](NC(=O)[C@H](CCC(N)=O)NC(=O)[C@H](C)NC(=O)[C@H](CO)NC(=O)CNC(=O)[C@H](CO)NC(=O)[C@H](CO)NC(=O)[C@@H]1CCCN1C(=O)[C@H](Cc1ccccc1)NC(=O)[C@H](CCC(N)=O)NC(=O)[C@H](Cc1ccccc1)NC(=O)[C@H](CO)NC(=O)[C@H](CC(C)C)NC(=O)[C@H](CCCCN)NC(=O)[C@H](C)NC(=O)[C@@H]1CCCN1C(=O)[C@H](CO)NC(=O)[C@@H]1CCCN1C(=O)[C@@H]1CCCN1C(=O)[C@H](CCCNC(=N)N)NC(=O)[C@H](CCCNC(=N)N)NC(=O)[C@H](CCCNC(=N)N)NC(=O)[C@H](CCC(N)=O)NC(=O)[C@H](CCCNC(=N)N)NC(=O)[C@H](CCCNC(=N)N)NC(=O)[C@H](CCCCN)NC(=O)[C@H](CCCCN)NC(=O)[C@H](CCCNC(=N)N)NC(=O)CN)C(C)C)C(=O)O [TAT-DEF-Elk-1] (H-GRKKRRQRRRPPSPAKLSFQFPSSGSAQVHI-OH; N-terminus and C-terminus assumed) | no effect |  | slight inhibitory effect | no effect | anti-proliferative properties on MPNST (words) ([3]; listed as TAT-DEF-Elk1): low anti-proliferative properties; inhibition of proliferation of sNF96.2, maximum reached ([3]; even at higher doses (up to 100 μM)): < 50%; anti-proliferative properties on vSMC (serum-induced proliferation) [6]: not and no effect
TAT-DEF-JunB: SEQ ID NO: 37 GRKKRRQRRRPPTTPTPPGQYFYPRGGGSGGGAG (pepsignal) |  |  | lower efficacy than the TAT-DEF-c-Fos peptide |  | 
